What all share (format): binding
One assay relates to Aβ40 and Aβ42 fibrils. In words: Displacement of tritiated 1a from Aβ fibrils. To be noted: benzothiazole ligands versus tritiated 1a on Aβ fibrils.
Assay [1] deals with synthetic Aβ(1–40) fibrils (Homo sapiens, UniProt P05067). In words: Displacement of 5 nM [3H]-1a.
Assay [2] has as its target synthetic Aβ(1–42) fibrils (Homo sapiens, UniProt P05067). In words: Displacement of 5 nM [3H]-1a.
[3] abbreviates: read-out: Aβ(1–40) EC50, displacement of 5 nM [3H]-1a from synthetic Aβ(1–40) fibrils.
Where [4] appears, read: read-out: Aβ(1–42) EC50, displacement of 5 nM [3H]-1a from synthetic Aβ(1–42) fibrils.

Where two headings read alike, the source gives them in different places. A value given as a limit tells only on which side of the number the result lay.

For orientation: EC50 means the concentration needed to bring the measured effect to its halfway point.

Sequence of synthetic Aβ(1–42) fibrils (P05067 672-713): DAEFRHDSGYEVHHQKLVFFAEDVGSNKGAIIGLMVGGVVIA
Sequence of synthetic Aβ(1–40) fibrils (P05067 672-711): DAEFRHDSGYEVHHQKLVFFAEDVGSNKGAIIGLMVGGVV

For the molecule `CNc1ccc(-c2nc3ccc(O)cc3s2)cc1` [PIB, Pittsburgh Compound B], the “displacing 1a” value with Aβ40 and Aβ42 fibrils was “ineffective”.
`COc1cc(/C=C/c2ccc(N)cc2)ccc1/C=C/c1ccc(N)cc1` [BMB, (E,E)-1-methoxy-2,5-bis(4’-aminostyryl)benzene]: the values for the EC50 in assay [1] and in assay [2] were > 10 µM and 3 µM, respectively.
For the molecule `CC(C)Cc1ccc(C(C)C(=O)O)cc1` (stereo not drawn) [ibuprofen], the EC50 in assay [1] and in assay [2] was > 10 µM in each case.
As for Thioflavin S [ThS], the EC50 in assay [1] (setting [3]) and in assay [2] (setting [4]) was > 10 µM in each case.
For the molecule `Nc1c(/N=N/c2ccc(-c3ccc(/N=N/c4cc(S(=O)(=O)O)c5ccccc5c4N)cc3)cc2)cc(S(=O)(=O)O)c2ccccc12` [Congo Red], the 50% effective concentration (EC50) worked out at 2.3 µM in assay [1] and 0.7 µM in assay [2].
Consider `CNc1ccc(-c2nc3ccccc3s2)cc1` [BTA-1, 2-(4´-methylaminophenyl)benzothiazole], for which the “displacing 1a” value in the assay on Aβ40 and Aβ42 fibrils is listed as “ineffective”.
Still for that read-out and setting: as for `Cc1ccc2c(c1)sc(-c1ccc(N(C)C)cc1)[n+]2C.[Cl-]` [ThT, Thioflavine T], the entry is “ineffective”.
`O=C(O)c1cc(/C=C/c2ccc(/C=C/c3ccc(O)c(C(=O)O)c3)c(Br)c2)ccc1O` [BSB]: the EC50 in assay [1] is 0.23 µM; in assay [2] it was 0.12 µM.
In the same order, the values of `O=C(O)c1cc(/N=N/c2ccc(-c3ccc(/N=N/c4ccc(O)c(C(=O)O)c4)cc3)cc2)ccc1O` [Chrysamine G] are 9 µM and 0.9 µM.
In the same order, the values of `Oc1ccc(/C=C/c2ccc(/C=C/c3ccc(O)cc3)c(Br)c2)cc1` [K114, (E,E)-1-bromo-2,5-bis(4’-hydroxystyryl)benzene] are > 10 µM and 3 µM.
In the same order, the values of `COc1ccc2cc([C@H](C)C(=O)O)ccc2c1` [naproxen] are > 10 µM and > 10 µM.
primulin: the EC50 in assay [1] (setting [3]) and in assay [2] (setting [4]) was > 10 µM throughout.

Values taken from paper PMC4254541 (Bioorganic & medicinal chemistry letters, 2014).
